# Assay results taken from patent US20240399142A1, “Methods Of Using Alternating Electric Fields And Checkpoint Inhibitors” (NOVOCURE GMBH, priority 2023, published 2024).
# Assay: LUNAR study safety: adverse events per CTCAE version 4.03, safety population
# Type: in vivo, human
# [1] = Grade 4, nervous system disorders
# [2] = Grade 4, renal and urinary disorders
# [3] = Grade 4, respiratory, thoracic, and mediastinal disorders
# [4] = Grade 4, skin and subcutaneous tissue disorders
# Protocol: Safety and treatment data were compiled from all patients who received any study therapy and were analyzed according to the actual treatment received. Analyses were performed using SAS software, version 9.4 (SAS Institute).
structure (smiles),measurement,setting,value
"CC(=O)O[C@@]12CO[C@@H]1C[C@H](O)[C@@]1(C)C(=O)[C@H](O)C3=C(C)[C@@H](OC(=O)[C@H](O)[C@@H](NC(=O)OC(C)(C)C)c4ccccc4)C[C@@](O)([C@@H](OC(=O)c4ccccc4)[C@H]21)C3(C)C [Docetaxel, docetaxel]",Metastases to bone,Grade 4,0 no. (%)
same,Metastases to central nervous system,Grade 4,0 no. (%)
same,Metastases to meninges,Grade 4,0 no. (%)
same,Metastases to skin,Grade 4,0 no. (%)
same,Mouth ulceration,Grade 4,0 no. (%)
same,Mucosal inflammation,Grade 4,0 no. (%)
same,Multiple organ dysfunction syndrome,Grade 4,0 no. (%)
same,Muscular weakness,Grade 4,0 no. (%)
same,Myalgia,Grade 4,0 no. (%)
same,Myocardial infarction,Grade 4,0 no. (%)
same,Nausea,Grade 4,0 no. (%)
same,Neck pain,Grade 4,0 no. (%)
same,Neuropathy peripheral,Grade 4,0 no. (%)
same,Neutropenia,Grade 4,10 (14.7) no. (%)
same,Neutrophil count decreased,Grade 4,4 (5.9) no. (%)
same,Non-cardiac chest pain,Grade 4,0 no. (%)
same,Oedema peripheral,Grade 4,0 no. (%)
same,Oral candidiasis,Grade 4,0 no. (%)
same,Pancreatic failure,Grade 4,0 no. (%)
same,Pancreatitis,Grade 4,0 no. (%)
same,Pericardial effusion,Grade 4,0 no. (%)
same,Peripheral sensory,Grade 4,0 no. (%)
same,Platelet count decreased,Grade 4,0 no. (%)
same,Pneumonia,Grade 4,0 no. (%)
same,Pneumonia pseudomonal,Grade 4,0 no. (%)
same,Pneumonia staphylococcal,Grade 4,0 no. (%)
same,Pyelonephritis,Grade 4,0 no. (%)
same,Pyopneumothorax,Grade 4,0 no. (%)
same,Pyrexia,Grade 4,0 no. (%)
same,Refeeding syndrome,Grade 4,0 no. (%)
same,Respiratory tract infection,Grade 4,0 no. (%)
same,Right ventricular failure,Grade 4,0 no. (%)
same,Sepsis,Grade 4,1 (1.5) no. (%)
same,Septic shock,Grade 4,0 no. (%)
same,Skin infection,Grade 4,0 no. (%)
same,Stomatitis,Grade 4,0 no. (%)
same,Subileus,Grade 4,0 no. (%)
same,Thrombocytopenia,Grade 4,1 (1.5) no. (%)
same,Thyroiditis subacute,Grade 4,0 no. (%)
same,Tumor pain,Grade 4,0 no. (%)
same,Upper respiratory tract infection,Grade 4,0 no. (%)
same,Urinary tract infection,Grade 4,0 no. (%)
same,Urosepsis,Grade 4,0 no. (%)
same,Vomiting,Grade 4,0 no. (%)
same,Weight decreased,Grade 4,0 no. (%)
same,White blood cell count decreased,Grade 4,2 (2.9) no. (%)
same,Brain oedema,[1],1 (1.5) no. (%)
same,Cauda equina syndrome,[1],0 no. (%)
same,Dysarthria,[1],0 no. (%)
same,Embolic stroke,[1],0 no. (%)
same,Hemiparesis,[1],0 no. (%)
same,Motor dysfunction,[1],0 no. (%)
same,Nervous system disorder,[1],0 no. (%)
same,Neurologic neglect syndrome,[1],0 no. (%)
same,Neurotoxicity,[1],0 no. (%)
same,Peripheral sensorimotor neuropathy,[1],0 no. (%)
same,Quadriparesis,[1],0 no. (%)
same,Seizure,[1],0 no. (%)
same,Syncope,[1],0 no. (%)
same,Vocal cord paralysis,[1],0 no. (%)
same,Anxiety,"Grade 4, psychiatric disorders",0 no. (%)
same,Confusional state,"Grade 4, psychiatric disorders",0 no. (%)
same,Mental status changes,"Grade 4, psychiatric disorders",1 (1.5) no. (%)
same,Acute kidney injury,[2],0 no. (%)
same,Urinary retention,[2],0 no. (%)
same,Acute respiratory failure,[3],0 no. (%)
same,Atelectasis,[3],0 no. (%)
same,Bronchial obstruction,[3],2 (2.9) no. (%)
same,Bronchopleural fistula,[3],0 no. (%)
same,Chronic obstructive pulmonary disease,[3],0 no. (%)
same,Cough,[3],0 no. (%)
same,Dyspnoea,[3],1 (1.5) no. (%)
same,Esophago-bronchial fistula,[3],0 no. (%)
same,Hemoptysis,[3],0 no. (%)
same,Hypoxia,[3],0 no. (%)
same,Interstitial lung disease,[3],0 no. (%)
same,Pleural effusion,[3],0 no. (%)
same,Pneumonia aspiration,[3],0 no. (%)
same,Pneumonitis,[3],0 no. (%)
same,Pulmonary embolism,[3],0 no. (%)
same,Pulmonary hemorrhage,[3],0 no. (%)
same,Respiratory failure,[3],0 no. (%)
same,Alopecia,[4],0 no. (%)
same,Dermatitis exfoliative,[4],0 no. (%)
same,Pruritus,[4],0 no. (%)
same,Rash,[4],0 no. (%)
same,Rash erythematous,[4],0 no. (%)
same,Rash maculopapular,[4],0 no. (%)
same,Skin erosion,[4],0 no. (%)
same,Skin reaction,[4],0 no. (%)
same,Skin toxicity,[4],0 no. (%)
same,Deep vein thrombosis,"Grade 4, vascular disorders",0 no. (%)
same,Embolism,"Grade 4, vascular disorders",0 no. (%)
same,Hypertension,"Grade 4, vascular disorders",0 no. (%)
same,Jugular vein thrombosis,"Grade 4, vascular disorders",1 (1.5) no. (%)
same,Peripheral arterial occlusive disease,"Grade 4, vascular disorders",0 no. (%)
same,Vena cava embolism,"Grade 4, vascular disorders",0 no. (%)
same,Acute myocardial infarction,Grade 5,0 no. (%)
same,Alanine aminotransferase increased,Grade 5,0 no. (%)
same,Anemia,Grade 5,0 no. (%)
same,Anemia macrocytic,Grade 5,0 no. (%)
same,Any adverse event,Grade 5,4 (5.9) no. (%)
same,Arthralgia,Grade 5,0 no. (%)
same,Ascites,Grade 5,0 no. (%)
same,Aspergillus infection,Grade 5,0 no. (%)
same,Asthenia,Grade 5,0 no. (%)
same,Atrial tachycardia,Grade 5,0 no. (%)
same,Autoimmune colitis,Grade 5,0 no. (%)
same,Back pain,Grade 5,0 no. (%)
same,Blood bilirubin increased,Grade 5,0 no. (%)
same,Bone pain,Grade 5,0 no. (%)
same,Bronchiolitis,Grade 5,0 no. (%)
same,Bronchitis,Grade 5,0 no. (%)
same,C-reactive protein increased,Grade 5,0 no. (%)
same,COVID-19 pneumonia,Grade 5,0 no. (%)
same,Cancer pain,Grade 5,0 no. (%)
same,Cardiac failure congestive,Grade 5,0 no. (%)
same,Cardiac tamponade,Grade 5,0 no. (%)
same,Cardiac ventricular thrombosis,Grade 5,0 no. (%)
same,Cataract,Grade 5,0 no. (%)
same,Chest pain,Grade 5,0 no. (%)
same,Cholangitis,Grade 5,0 no. (%)
same,Cholecystitis,Grade 5,0 no. (%)
same,Cholelithiasis,Grade 5,0 no. (%)
same,Clostridium bacteremia,Grade 5,0 no. (%)
same,Coronary artery disease,Grade 5,0 no. (%)
same,Decreased appetite,Grade 5,0 no. (%)
same,Dehydration,Grade 5,0 no. (%)
same,Diarrhea,Grade 5,0 no. (%)
same,Diverticulitis,Grade 5,0 no. (%)
same,Drug hypersensitivity,Grade 5,0 no. (%)
same,Encephalitis,Grade 5,0 no. (%)
same,Esophagitis,Grade 5,0 no. (%)
same,Euthanasia,Grade 5,1 (1.5) no. (%)
